BigSolDB 2.1

Conditions: in water

| solubility (mole fraction) (283.15 K) | solubility (mole fraction) (288.15 K) | solubility (mole fraction) (293.15 K) | solubility (mole fraction) (298.15 K) | solubility (mole fraction) (303.15 K) | solubility (mole fraction) (308.15 K) | solubility (mole fraction) (313.15 K) | solubility (mole fraction) (318.15 K) | solubility (mole fraction) (323.15 K) | solubility (mole fraction) (328.15 K) | solubility (mole fraction) (333.15 K) | SMILES |
| --- | --- | --- | --- | --- | --- | --- | --- | --- | --- | --- | --- |
| 0.0128 | 0.014 | 0.0159 | 0.0189 | 0.0224 | 0.0268 | 0.0323 | 0.0383 | 0.0473 | 0.0584 | 0.075 | O=S(=O)([O-])c1ccc2ccc(S(=O)(=O)[O-])cc2c1.[Na+].[Na+] |
| 0.00323 | 0.00343 | 0.00366 | 0.00402 | 0.00437 | 0.00478 | 0.00523 | 0.00563 | 0.00611 | 0.00657 | 0.0072 | O=S(=O)([O-])c1ccc2cc(S(=O)(=O)[O-])ccc2c1.[Na+].[Na+] |
